# Patent US12059398B2, “Compositions of 1,3-butanediol and beta-hydroxybutyric acid to provide optimal therapeutic ketosis” (Health Via Modern Nutrition Inc., priority 2022, dated 2024)
# Columns and labels:
# [1] = Blood D-BHB pharmacokinetics comparison of ketogenic nutritional compositions after ingestion; format: in vivo; conditions: for Blood D-BHB: dose 0.5 g (total BDO or BHB)/bodyweight kg, ingestion
# Method: FIG. 1 is a graph showing the blood D-BHB pharmacokinetics for eight ketogenic compositions, reporting blood D-BHB mM over a time period of six hours following ingestion of the ketogenic compositions.
# The blood D-BHB pharmacokinetics produced by different ketogenic nutritional compositions were evaluated and compared. The nutritional compositions include: 100% R-BDO; 90 wt. % R-BDO+10 wt. % D-BHB (acid/salt); 85 wt. % R-BDO+15 wt. % D-BHB (acid/salt); 80 wt. % R-BDO+20 wt. % D-BHB (acid/salt); 75 wt. % R-BDO+25 wt. % D-BHB (acid/salt); 70 wt. % BDO+30 wt. % D-BHB; 60 wt. % BDO+40 wt. % D-BHB; and 50% BDO+50% D-BHB via R-1,3 BDO−D-BHB monoester. The compositions were administered at a dose of 0.5 g (total BDO or BHB excluding mineral or base pairs)/bodyweight kg.
# The nutritional compositions include: 100% R-BDO; 90 wt. % R-BDO+10 wt. % D-BHB (acid/salt); 85 wt. % R-BDO+15 wt. % D-BHB (acid/salt); 80 wt. % R-BDO+20 wt. % D-BHB (acid/salt); 75 wt. % R-BDO+25 wt. % D-BHB (acid/salt); 70 wt. % BDO+30 wt. % D-BHB; 60 wt. % BDO+40 wt. % D-BHB; and 50% BDO+50% D-BHB via R-1,3 BDO−D-BHB monoester.
# By integrating over time rather than looking at individual concentration measurements, a more accurate estimate of the overall exposure to the drug is obtained.
# [2] = system: potassium channels and nitric oxide synthase; conditions: cited from earlier work
# [3] = dose 0.5 g/bodyweight kg, six hours following ingestion
Compound,Blood D-BHB ([1]; 0 minutes) [mM],Blood D-BHB ([1]; 60 minutes) [mM],Blood D-BHB ([1]; 120 minutes) [mM],Blood D-BHB ([1]; 180 minutes) [mM],Blood D-BHB ([1]; 240 minutes) [mM],Blood D-BHB ([1]; 300 minutes) [mM],Blood D-BHB ([1]; 360 minutes) [mM],"Duration of Blood D-BHB Concentrations between 1 mM and 2.5 mM [1, 3] [min]","Total AUC mM × minutes in optimal therapeutic ketosis range of 1-2.5 mM [1, 3] [mM·min]",Effect on age-associated endothelial-dependent and -independent dysfunction ([2]; not associated with increased blood BHB concentration),Direct vasodilator mechanism ([2]; through activation of potassium channels and nitric oxide synthase)
"R-1,3 BDO−D-BHB monoester",0.3,4.3,1.9,1.3,0.5,0.3,0.2,158,98.3,–,–
"C[C@@H](O)CCO [100% R-1,3-BDO (natural), R-1,3-butanediol]",–,–,–,–,–,–,–,–,–,sufficient to reverse age-associated endothelial-dependent and -independent dysfunction,predominantly an endothelium-dependent vasodilator
